Measurements from patent publication US4971965A, “Antibiotics TAN-1057” (Takeda Chemical Industries, Ltd., priority 1988, dated 1990).
Values after ≈ are worked out from the molar mass of the structure shown. Structures can show the parent of a compound that is named as a salt. Where two headings read alike, the source gives them in different places.

Assays:
[1] = tested on: Escherichia coli NIHJ JC 2; format: cell-based; settings: NIHJJC2, agar dilution, DY medium, pH unadjusted, approx. 10^6 CFU/ml, read-out: Minimum Inhibitory Conc. (MIC)
Method: (§1) (Note 1) Measurement was conducted by employing a medium consisting of DY
(§2) medium [Bacto Antibiotic Medium 3 (Difco Laboratories, USA)(17.5 g), Bact
(§3) yeast extract(Difco Laboratories, USA)(5.0 g) and distilled water(pH
(§4) unadjusted)(1000 ml)], using approximately 10^6 colony forming unit/m
(§5) of inoculum, by means of the agar dilution method.

[2] = tested on: Micrococcus luteus IFO 12708; format: cell-based; settings: IFO12708, agar dilution, DY medium, pH unadjusted, approx. 10^6 CFU/ml, read-out: Minimum Inhibitory Conc. (MIC)
Method: as §1, §2, §3, §4, §5

[3] = tested on: Acinetobacter calcoaceticus IFO 12552; format: cell-based; settings: IFO12552, agar dilution, DY medium, pH unadjusted, approx. 10^6 CFU/ml, read-out: Minimum Inhibitory Conc. (MIC)
Method: as §1, §2, §3, §4, §5

[4] = tested on: Streptococcus faecalis IFO 3989; format: cell-based; settings: Enterococcus faecalis, IFO3989; agar dilution; DY medium, pH unadjusted; approx. 10^6 CFU/ml; read-out: Minimum Inhibitory Conc. (MIC)
Method: as §1, §2, §3, §4, §5

[5] = tested on: Bacillus subtilis NIHJ PCI 219; format: cell-based; settings: agar dilution, DY medium, pH unadjusted, approx. 10^6 CFU/ml, read-out: Minimum Inhibitory Conc. (MIC)
Method: as §1, §2, §3, §4, §5

[6] = tested on: Staphylococcus aureus FDA 209P; format: cell-based; settings: FDA209P, agar dilution, DY medium, pH unadjusted, approx. 10^6 CFU/ml, read-out: Minimum Inhibitory Conc. (MIC)
Method: as §1, §2, §3, §4, §5

[7] = tested on: Pseudomonas aeruginosa IFO 3080; format: cell-based; settings: IFO3080, agar dilution, DY medium, pH unadjusted, approx. 10^6 CFU/ml, read-out: Minimum Inhibitory Conc. (MIC)
Method: as §1, §2, §3, §4, §5

[8] = tested on: Bacillus megaterium IFO 12108; format: cell-based; settings: Priestia megaterium, IFO12108; agar dilution; DY medium, pH unadjusted; approx. 10^6 CFU/ml; read-out: Minimum Inhibitory Conc. (MIC)
Method: as §1, §2, §3, §4, §5

[9] = tested on: Proteus vulgaris IFO 3988; format: cell-based; settings: IFO3988, agar dilution, DY medium, pH unadjusted, approx. 10^6 CFU/ml, read-out: Minimum Inhibitory Conc. (MIC)
Method: as §1, §2, §3, §4, §5

[10] = tested on: Aeromonas caviae NCW; format: cell-based; settings: agar dilution, DY medium, pH unadjusted, approx. 10^6 CFU/ml, read-out: Minimum Inhibitory Conc. (MIC)
Method: as §1, §2, §3, §4, §5

[11] = tested on: Escherichia coli LD-2; format: cell-based; settings: LD2, agar dilution, DY medium, pH unadjusted, approx. 10^6 CFU/ml, read-out: Minimum Inhibitory Conc. (MIC)
Method: as §1, §2, §3, §4, §5

[12] = tested on: Staphylococcus epidermidis IFO 3762; format: cell-based; settings: IFO3762, agar dilution, DY medium, pH unadjusted, approx. 10^6 CFU/ml, read-out: Minimum Inhibitory Conc. (MIC)
Method: as §1, §2, §3, §4, §5

[13] = tested on: Klebsiella pnemoniae IFO 3317; format: cell-based; settings: IFO3317, agar dilution, DY medium, pH unadjusted, approx. 10^6 CFU/ml, read-out: Minimum Inhibitory Conc. (MIC)
Method: as §1, §2, §3, §4, §5

[14] = tested on: Salmonella typhimurium IFO 12529; format: cell-based; settings: Salmonella enterica; agar dilution; DY medium, pH unadjusted; approx. 10^6 CFU/ml; read-out: Minimum Inhibitory Conc. (MIC)
Method: as §1, §2, §3, §4, §5

[15] = tested on: Bacillus cereus FDA 5; format: cell-based; settings: FDA5, agar dilution, DY medium, pH unadjusted, approx. 10^6 CFU/ml, read-out: Minimum Inhibitory Conc. (MIC)
Method: as §1, §2, §3, §4, §5

[16] = Conversion in aqueous solution; format: physicochemical
Source text: For example, in case that the mixture of TAN-1057A and B is isolated as crystals of the sulfate, the ratio of TAN-1057A and B is about 6 to 8:4 to 2.
The term "Antibiotics TAN-1057" in the present specification includes also a mixture which contains TAN-1057A, B, C and D in an optional combination and an optional ratio thereof.

[17] = tested on: Staphylococcus aureus N247; experiment: Antibacterial activity against clinically isolated S. aureus (agar dilution MIC, Table 2); format: cell-based; settings: Staphylococcus aureus, N247
Method: (§6) DMPPC: Methicillin, KM: Kanamycin, GM: Gentamycin, EM: Erythromycin (Note
(§7) Determined by the agar dilution method. Medium: Mueller Hinton medium
(§8) (Difco, USA) Inoculum Size: 10^6 CFU/ml, 37° C.

[18] = tested on: Staphylococcus aureus N129; experiment: as above; format: cell-based; settings: Staphylococcus aureus, N129
Method: as §6, §7, §8

[19] = tested on: Staphylococcus aureus N247-21; experiment: as above; format: cell-based; settings: Staphylococcus aureus, N24721
Method: as §6, §7, §8

[20] = tested on: Staphylococcus aureus C7; experiment: as above; format: cell-based; settings: Staphylococcus aureus, C7
Method: as §6, §7, §8

[21] = tested on: Staphylococcus aureus N247-16; experiment: as above; format: cell-based; settings: Staphylococcus aureus, N24716
Method: as §6, §7, §8

[22] = tested on: Staphylococcus aureus C4; experiment: as above; format: cell-based; settings: Staphylococcus aureus, C4
Method: as §6, §7, §8

[23] = tested on: Staphylococcus aureus N235; experiment: as above; format: cell-based; settings: Staphylococcus aureus, N235
Method: as §6, §7, §8

[24] = tested on: Staphylococcus aureus N51; experiment: as above; format: cell-based; settings: Staphylococcus aureus, N51
Method: as §6, §7, §8

[25] = tested on: Staphylococcus aureus FDA 209P; experiment: as above; format: cell-based; settings: Staphylococcus aureus, FDA209P
Method: as §6, §7, §8

[26] = tested on: Staphylococcus aureus C3; experiment: as above; format: cell-based; settings: Staphylococcus aureus, C3
Method: as §6, §7, §8

[27] = tested on: Staphylococcus aureus N121; experiment: as above; format: cell-based; settings: Staphylococcus aureus, N121
Method: as §6, §7, §8

[28] = tested on: Staphylococcus aureus C10; experiment: as above; format: cell-based; settings: Staphylococcus aureus, C10
Method: as §6, §7, §8

[29] = tested on: Staphylococcus aureus TS-65; experiment: as above; format: cell-based; settings: Staphylococcus aureus, TS65
Method: as §6, §7, §8

[30] = tested on: Staphylococcus aureus N64; experiment: as above; format: cell-based; settings: Staphylococcus aureus, N64
Method: as §6, §7, §8

[31] = tested on: Staphylococcus aureus N83; experiment: as above; format: cell-based; settings: Staphylococcus aureus, N83
Method: as §6, §7, §8

[32] = tested on: Staphylococcus aureus N237; experiment: as above; format: cell-based; settings: Staphylococcus aureus, N237
Method: as §6, §7, §8

[33] = tested on: Staphylococcus aureus N91; experiment: as above; format: cell-based; settings: Staphylococcus aureus, N91
Method: as §6, §7, §8

[34] = tested on: Staphylococcus aureus TST-75; experiment: as above; format: cell-based; settings: Staphylococcus aureus, TST75
Method: as §6, §7, §8

[35] = tested on: Staphylococcus aureus N28; experiment: as above; format: cell-based; settings: Staphylococcus aureus, N28
Method: as §6, §7, §8

[36] = tested on: Staphylococcus aureus N176; experiment: as above; format: cell-based; settings: Staphylococcus aureus, N176
Method: as §6, §7, §8

[37] = tested on: Staphylococcus aureus N62; experiment: as above; format: cell-based; settings: Staphylococcus aureus, N62
Method: as §6, §7, §8

[38] = tested on: Staphylococcus aureus N176-3; experiment: as above; format: cell-based; settings: Staphylococcus aureus, N1763
Method: as §6, §7, §8

[39] = tested on: Staphylococcus aureus N267; experiment: as above; format: cell-based; settings: Staphylococcus aureus, N267
Method: as §6, §7, §8

[40] = tested on: Staphylococcus aureus N176-6; experiment: as above; format: cell-based; settings: Staphylococcus aureus, N1766
Method: as §6, §7, §8

[41] = tested on: Staphylococcus aureus N262; experiment: as above; format: cell-based; settings: Staphylococcus aureus, N262
Method: as §6, §7, §8

[42] = tested on: Staphylococcus aureus N326; experiment: as above; format: cell-based; settings: Staphylococcus aureus, N326
Method: as §6, §7, §8

[43] = tested on: Staphylococcus aureus N8; experiment: as above; format: cell-based; settings: Staphylococcus aureus, N8
Method: as §6, §7, §8

[44] = Acidity or basicity; format: physicochemical
[45] = Solubility; format: physicochemical

SMILES: CN1C(=O)C[C@H](CCCNC(=N)N)NC(=O)[C@@H]1CNC(=N)NC(N)=O [TAN-1057D]
- MIC [1]: > 100 µg/mL
- MIC [2]: 3.13 µg/mL (≈ 8.81 µM)
- MIC [3]: 25 µg/mL (≈ 70.3 µM)
- MIC [4]: 12.5 µg/mL (≈ 35.2 µM)
- MIC [5]: 12.5 µg/mL (≈ 35.2 µM)
- MIC [6]: 6.25 µg/mL (≈ 17.6 µM)
- MIC [7]: > 100 µg/mL
- MIC [8]: 12.5 µg/mL (≈ 35.2 µM)
- MIC [9]: > 100 µg/mL
- MIC [10]: 6.25 µg/mL (≈ 17.6 µM)
- MIC [11]: 12.5 µg/mL (≈ 35.2 µM)
- MIC [12]: 0.78 µg/mL (≈ 2.19 µM)
- MIC [13]: > 100 µg/mL
- MIC [14]: > 100 µg/mL
- MIC [15]: 25 µg/mL (≈ 70.3 µM)
- conversion of TAN-1057C and D ([16]; especially aqueous alkaline solution, by HPLC): converted into TAN-1057B and TAN-1057A, respectively

SMILES: CN(C(=O)C[C@@H](N)CCCNC(=N)N)[C@@H]1CNC(NC(N)=O)=NC1=O [TAN-1057B]
- MIC [1]: > 100 µg/mL
- MIC [2]: 12.5 µg/mL (≈ 35.2 µM)
- MIC [3]: 100 µg/mL (≈ 281 µM)
- MIC [4]: 50 µg/mL (≈ 141 µM)
- MIC [5]: 50 µg/mL (≈ 141 µM)
- MIC [6]: 25 µg/mL (≈ 70.3 µM)
- MIC [7]: > 100 µg/mL
- MIC [8]: 50 µg/mL (≈ 141 µM)
- MIC [9]: > 100 µg/mL
- MIC [10]: 25 µg/mL (≈ 70.3 µM)
- MIC [11]: 25 µg/mL (≈ 70.3 µM)
- MIC [12]: 3.13 µg/mL (≈ 8.81 µM)
- MIC [13]: > 100 µg/mL
- MIC [14]: > 100 µg/mL
- MIC [15]: 100 µg/mL (≈ 281 µM)
- conversion of TAN-1057A and B into each other ([16]; room temperature): converted easily each other

SMILES: CC[C@H]1OC(=O)[C@H](C)[C@@H](O[C@H]2C[C@@](C)(OC)[C@@H](O)[C@H](C)O2)[C@H](C)[C@@H](O[C@@H]2O[C@H](C)C[C@H](N(C)C)[C@H]2O)[C@](C)(O)C[C@@H](C)C(=O)[C@H](C)[C@@H](O)[C@]1(C)O [EM, Erythromycin]
- MIC [17]: 6.25 µg/mL (≈ 8.52 µM)
- MIC [18]: 0.39 µg/mL (≈ 0.531 µM)
- MIC [19]: 6.25 µg/mL (≈ 8.52 µM)
- MIC [20]: 12.5 µg/mL (≈ 17 µM)
- MIC [21]: 3.13 µg/mL (≈ 4.26 µM)
- MIC [22]: 0.39 µg/mL (≈ 0.531 µM)
- MIC [23]: > 100 µg/mL
- MIC [24]: 0.39 µg/mL (≈ 0.531 µM)
- MIC [25]: 0.39 µg/mL (≈ 0.531 µM)
- MIC [26]: > 100 µg/mL
- MIC [27]: 0.39 µg/mL (≈ 0.531 µM)
- MIC [28]: > 100 µg/mL
- MIC [29]: > 100 µg/mL
- MIC [30]: > 100 µg/mL
- MIC [31]: > 100 µg/mL
- MIC [32]: > 100 µg/mL
- MIC [33]: 0.39 µg/mL (≈ 0.531 µM)
- MIC [34]: > 100 µg/mL
- MIC [35]: > 100 µg/mL
- MIC [36]: > 100 µg/mL
- MIC [37]: > 100 µg/mL
- MIC [38]: > 100 µg/mL
- MIC [39]: > 100 µg/mL
- MIC [40]: > 100 µg/mL
- MIC [41]: > 100 µg/mL
- MIC [42]: > 100 µg/mL
- MIC [43]: > 100 µg/mL

SMILES: CN(C(=O)C[C@@H](N)CCCNC(=N)N)[C@@H]1CNC(NC(N)=O)=NC1=O [TAN-1057B dihydrochloride]
- Acidity or basicity [44]: neutral
- Solubility ([45]; acetone): Sparingly soluble
- Solubility ([45]; diethyl ether): Sparingly soluble
- Solubility ([45]; dimethylsulfoxide): Soluble
- Solubility ([45]; ethyl acetate): Sparingly soluble
- Solubility ([45]; methanol): Soluble
- Solubility ([45]; water): Readily soluble
